Measurements from patent publication US8703188B1, “Dispersible tablet” (Azanta A/S, priority 2012, dated 2014).
Values after ≈ are worked out from the molar mass of the structure shown.

How the values were obtained:
[1] = Solubility of Nimorazole in water; assay type: physicochemical
[2] = The Merck Index, 14th Edition; cited from earlier work

solubility [1]: 4910 µg/mL (≈ 21.7 mM)
Compound: O=[N+]([O-])c1cncn1CCN1CCOCC1 [Nimorazole]
solubility in water [2]: slightly soluble
